“And” between values parts separate entries of the source, which are not always exact repeats. Equal entries are not always repeated.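 Five compound concentrations were applied to cells in 96-well plates for 48 hours; endpoints were derived by simple linear interpolation of the resulting dose-response curve. The concentration for 50% growth inhibition is given as GI50. TGI: total growth inhibition.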
Assays:
Assay in all cases: NCI anticancer screen, dose series, 48 h
[1] = system: DU-145 prostate
[2] = system: HCC-2998 colon
[3] = system: HCT-15 colon
[4] = system: IGROV1 ovarian
[5] = system: KM12 colon
[6] = system: MOLT-4 leukemia
[7] = system: NCI-H226 lung
[8] = system: OVCAR-4 ovarian
[9] = system: SK-OV-3 ovarian
[10] = system: U251 CNS

Row | Compound | GI50 [1] | TGI [1] [µM] | GI50 [2] | TGI [2] | GI50 [3] | TGI [3] | GI50 [4] [µM] | TGI [4] | GI50 [5] [µM] | TGI [5] | GI50 [6] | TGI [6] | GI50 [7] [µM] | TGI [7] | GI50 [8] | TGI [8] | GI50 [9] | TGI [9] | GI50 [10] | TGI [10]
1 | COc1cc(-c2cc(-c3nc4cc(Cl)c(Cl)cc4[nH]3)[nH]n2)cc(OC)c1OC | 4.16 µM | 15.2 | 4.47 µM | 15 µM | 2.89 µM | 11.8 µM | 3.86 | 18.2 µM | 3.56 | 13.9 µM | 2.49 µM | 6.29 µM | 2.29 | 8.8 µM | 2.21 µM | 6.77 µM | 17.3 µM | 53 µM | 2.96 µM | 11 µM
2 | [C-]#[O+].[C-]#[O+].[Ir].[O-]c1ccc2ccccc2c1N=Nc1ccccc1 |  | 31.9 |  | 29.4 µM |  | 19.8 µM |  | 37.1 µM | 13 | > 44.1 µM |  | 50.2 µM |  | 31.9 µM |  | 24.7 µM |  | > 68 µM |  | 34.9 µM
3 | C[C@@H]1[C@H]2[C@H](C=C3[C@@H]4CC[C@H]5Cc6nc7c(nc6C[C@]5(C)[C@H]4C[C@@H](O)[C@@]32C)C[C@@H]2CC[C@H]3C4=C[C@@H]5O[C@@]6(CC[C@](C)(CO)O6)[C@@H](C)[C@@]5(O)[C@@]4(C)[C@H](O)C[C@@H]3[C@@]2(C)C7)O[C@]12CCC(C)(C)O2 | 2.87 µM | 37.2 | 16 µM | 56.5 µM | 0.43 µM | 8.14 µM | 2.16 | 62.8 µM | 0.73 | 16.2 µM | 0.259 µM | 0.857 µM | 3.33 | 35.6 µM | 7.05 µM | > 69.7 µM | 0.472 µM | 5.29 µM | 0.2 µM | 7.06 µM
4 | COc1cc2cn3c4ccc(O)cc4nc(N)c3c2cc1OC | 0.253 µM | 5.75 | 0.606 µM | 7.29 µM | 0.721 µM | 12.1 µM | 0.706 | 15.1 µM | 0.885 | 4.48 µM | 0.483 µM | 4.33 µM | 0.201 | 3.54 µM | 0.651 µM | 12.4 µM | 0.211 µM | 10.8 µM | 0.11 µM | 8.32 µM
5 | NC(=O)c1ccc2nc(-c3ccc(C4(N)CCC4)cc3)c(-c3ccccc3)n2n1 | 14.8 µM | 33.1 | 13 µM | 31.7 µM | 11.5 µM | 33.1 µM | 0.0886 | 10.7 µM | 10.5 | 25.3 µM | 0.741 µM | 19.2 µM | 12.7 | 32.5 µM | 16 µM | 44.6 µM | 0.243 µM | 12.7 µM | 6.27 µM | 21.5 µM
6 | S=c1nc[nH]c2nc[nH]c12 | 0.825 µM and 3.96 µM | > 750 | 2.93 µM and 11.7 µM | > 100 µM and 463 µM and > 750 µM | 3.4 µM and 18.2 µM | > 100 µM and 629 µM and > 750 µM | 23.3 | > 100 µM and 695 µM and > 750 µM |  | > 100 µM and 716 µM and > 707 µM | 2.34 µM and 13.2 µM | 26.8 µM and 245 µM and 31.6 µM |  | > 100 µM and 676 µM and > 750 µM | 70.8 µM and 61.2 µM | > 100 µM and 618 µM and > 750 µM | 0.629 µM and 5.06 µM | > 100 µM and 448 µM and > 750 µM | 19.3 µM and 72.4 µM | > 100 µM and 719 µM and > 750 µM

From PubChem BioAssay (NCI)
